Experimental data: PubChem BioAssay (NCI)
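Each compound was tested at five concentrations against cells in 96-well plates for 48 hours. TGI: concentration producing complete growth inhibition.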

Experiments:
Experiment in all cases: DTP human tumour cell line panel, 48 h
786-0 renal = test system: 786-0 renal
A498 renal = test system: A498 renal
A549 NSCLC = test system: A549 NSCLC
ACHN renal = test system: ACHN renal
BT-549 breast = test system: BT-549 breast
CAKI-1 renal = test system: CAKI-1 renal
CCRF-CEM leukemia = test system: CCRF-CEM leukemia
COLO 205 colon = test system: COLO 205 colon
DU-145 prostate = test system: DU-145 prostate
EKVX NSCLC = test system: EKVX NSCLC
HCC-2998 colon = test system: HCC-2998 colon
HCT-116 colon = test system: HCT-116 colon
HCT-15 colon = test system: HCT-15 colon
HOP-62 NSCLC = test system: HOP-62 NSCLC
HOP-92 NSCLC = test system: HOP-92 NSCLC
HS 578T breast = test system: HS 578T breast
HT29 colon = test system: HT29 colon
IGROV1 ovarian = test system: IGROV1 ovarian
K-562 leukemia = test system: K-562 leukemia
KM12 colon = test system: KM12 colon
LOX IMVI melanoma = test system: LOX IMVI melanoma
M14 melanoma = test system: M14 melanoma
MALME-3M melanoma = test system: MALME-3M melanoma
MCF7 breast = test system: MCF7 breast
MDA-MB-231 breast = test system: MDA-MB-231 breast
MDA-MB-435 = test system: MDA-MB-435
MDA-N = test system: MDA-N
MOLT-4 leukemia = test system: MOLT-4 leukemia
NCI-H226 lung = test system: NCI-H226 lung
NCI-H23 lung = test system: NCI-H23 lung
NCI-H460 lung = test system: NCI-H460 lung
NCI-H522 lung = test system: NCI-H522 lung
NCI/ADR-RES ovarian = test system: NCI/ADR-RES ovarian
OVCAR-3 ovarian = test system: OVCAR-3 ovarian
OVCAR-4 ovarian = test system: OVCAR-4 ovarian
OVCAR-5 ovarian = test system: OVCAR-5 ovarian
OVCAR-8 ovarian = test system: OVCAR-8 ovarian
PC-3 prostate = test system: PC-3 prostate
RPMI-8226 leukemia = test system: RPMI-8226 leukemia
RXF 393 renal = test system: RXF 393 renal
SF-268 CNS = test system: SF-268 CNS
SF-295 CNS = test system: SF-295 CNS
SF-539 CNS = test system: SF-539 CNS
SK-MEL-2 melanoma = test system: SK-MEL-2 melanoma
SK-MEL-28 melanoma = test system: SK-MEL-28 melanoma
SK-MEL-5 melanoma = test system: SK-MEL-5 melanoma
SK-OV-3 ovarian = test system: SK-OV-3 ovarian
SN12C renal = test system: SN12C renal
SNB-19 CNS = test system: SNB-19 CNS
SNB-75 CNS = test system: SNB-75 CNS
SR leukemia = test system: SR leukemia
SW-620 colon = test system: SW-620 colon
T-47D breast = test system: T-47D breast
TK-10 renal = test system: TK-10 renal
U251 CNS = test system: U251 CNS
UACC-257 melanoma = test system: UACC-257 melanoma
UACC-62 melanoma = test system: UACC-62 melanoma
UO-31 renal = test system: UO-31 renal

`COc1cc2c(cc1O)NC(=S)[C@@H]1CCCN1C2=O` was tested, and the TGI (786-0 renal) was > 100 µM, the TGI (A498 renal) was > 100 µM and the TGI (A549 NSCLC) was > 100 µM. The TGI (ACHN renal) was > 100 µM, the TGI (BT-549 breast) was > 100 µM and the TGI (CAKI-1 renal) was > 100 µM. The TGI (CCRF-CEM leukemia) was > 100 µM, the TGI (COLO 205 colon) was > 100 µM and the TGI (DU-145 prostate) was > 100 µM. For the same molecule, the TGI (EKVX NSCLC) was > 100 µM, the TGI (HCC-2998 colon) was > 100 µM and the TGI (HCT-116 colon) was > 100 µM. For the same molecule, the TGI (HCT-15 colon) was > 100 µM, the TGI (HOP-62 NSCLC) was > 100 µM and the TGI (HOP-92 NSCLC) was > 100 µM. The TGI (HS 578T breast) was > 100 µM, the TGI (HT29 colon) was > 100 µM and the TGI (IGROV1 ovarian) was > 100 µM. The TGI (K-562 leukemia) was > 100 µM, the TGI (KM12 colon) was > 100 µM and the TGI (LOX IMVI melanoma) was > 100 µM. For the same molecule, the TGI (M14 melanoma) was > 100 µM, the TGI (MALME-3M melanoma) was > 100 µM and the TGI (MCF7 breast) was > 100 µM. For the same molecule, the TGI (MDA-MB-231 breast) was > 100 µM, the TGI (MDA-MB-435) was > 100 µM and the TGI (MDA-N) was > 100 µM. The TGI (MOLT-4 leukemia) was > 100 µM, the TGI (NCI-H226 lung) was > 100 µM and the TGI (NCI-H23 lung) was > 100 µM. The TGI (NCI-H460 lung) was > 100 µM, the TGI (NCI-H522 lung) was > 100 µM and the TGI (NCI/ADR-RES ovarian) was > 100 µM. The TGI (OVCAR-3 ovarian) was > 100 µM, the TGI (OVCAR-4 ovarian) was > 100 µM and the TGI (OVCAR-5 ovarian) was > 100 µM. The TGI (OVCAR-8 ovarian) was > 100 µM, the TGI (PC-3 prostate) was > 100 µM and the TGI (RPMI-8226 leukemia) was > 100 µM. For the same molecule, the TGI (RXF 393 renal) was > 100 µM, the TGI (SF-268 CNS) was > 100 µM and the TGI (SF-295 CNS) was > 100 µM. For the same molecule, the TGI (SF-539 CNS) was > 100 µM, the TGI (SK-MEL-2 melanoma) was > 100 µM and the TGI (SK-MEL-28 melanoma) was > 100 µM. The TGI (SK-MEL-5 melanoma) was > 100 µM, the TGI (SK-OV-3 ovarian) was > 100 µM and the TGI (SN12C renal) was > 100 µM. The TGI (SNB-19 CNS) was > 100 µM, the TGI (SNB-75 CNS) was > 100 µM and the TGI (SR leukemia) was > 100 µM. The TGI (SW-620 colon) was > 100 µM, the TGI (T-47D breast) was > 100 µM and the TGI (TK-10 renal) was > 100 µM. The TGI (U251 CNS) was > 100 µM, the TGI (UACC-257 melanoma) was > 100 µM and the TGI (UACC-62 melanoma) was > 100 µM. The TGI (UO-31 renal) was > 100 µM.

With `CN(Cc1cnc2c(n1)C(N)=NN(N)N2)c1ccc(C(=O)NC(CCP(=O)(O)O)C(=O)O)cc1` (stereo not drawn) the TGI (A498 renal) was > 100 µM, the TGI (A549 NSCLC) was > 100 µM and the TGI (ACHN renal) was > 100 µM. For the same molecule, the TGI (BT-549 breast) was > 89.6 µM, the TGI (CAKI-1 renal) was > 100 µM and the TGI (CCRF-CEM leukemia) was > 100 µM. The TGI (COLO 205 colon) was > 100 µM, the TGI (DU-145 prostate) was > 100 µM and the TGI (EKVX NSCLC) was > 100 µM. The TGI (HCC-2998 colon) was > 100 µM, the TGI (HCT-15 colon) was > 100 µM and the TGI (HOP-62 NSCLC) was > 100 µM. The TGI (HOP-92 NSCLC) was > 100 µM, the TGI (HS 578T breast) was > 100 µM and the TGI (HT29 colon) was > 38.8 µM. For the same molecule, the TGI (IGROV1 ovarian) was > 100 µM, the TGI (K-562 leukemia) was > 100 µM and the TGI (KM12 colon) was > 100 µM. The TGI (LOX IMVI melanoma) was > 100 µM, the TGI (M14 melanoma) was > 100 µM and the TGI (MALME-3M melanoma) was > 100 µM. For the same molecule, the TGI (MCF7 breast) was > 100 µM, the TGI (MDA-MB-231 breast) was > 100 µM and the TGI (MDA-MB-435) was > 100 µM. For the same molecule, the TGI (MDA-N) was > 100 µM, the TGI (MOLT-4 leukemia) was > 100 µM and the TGI (NCI-H226 lung) was > 54 µM. The TGI (NCI-H23 lung) was > 100 µM, the TGI (NCI-H460 lung) was > 100 µM and the TGI (NCI-H522 lung) was > 100 µM. The TGI (NCI/ADR-RES ovarian) was > 55.8 µM, the TGI (OVCAR-3 ovarian) was > 100 µM and the TGI (OVCAR-4 ovarian) was > 100 µM. The TGI (OVCAR-8 ovarian) was > 58.3 µM, the TGI (PC-3 prostate) was > 100 µM and the TGI (RPMI-8226 leukemia) was > 100 µM. The TGI (RXF 393 renal) was 71.8 µM, the TGI (SF-268 CNS) was > 100 µM and the TGI (SF-295 CNS) was > 100 µM. The TGI (SF-539 CNS) was > 100 µM, the TGI (SK-MEL-2 melanoma) was > 100 µM and the TGI (SK-MEL-28 melanoma) was > 100 µM. For the same molecule, the TGI (SK-MEL-5 melanoma) was > 100 µM, the TGI (SK-OV-3 ovarian) was > 100 µM and the TGI (SN12C renal) was > 100 µM. For the same molecule, the TGI (SNB-19 CNS) was > 100 µM, the TGI (SNB-75 CNS) was > 100 µM and the TGI (SR leukemia) was > 100 µM. The TGI (SW-620 colon) was > 100 µM, the TGI (T-47D breast) was > 100 µM and the TGI (TK-10 renal) was > 100 µM. For the same molecule, the TGI (U251 CNS) was > 100 µM, the TGI (UACC-257 melanoma) was > 100 µM and the TGI (UACC-62 melanoma) was > 100 µM. For the same molecule, the TGI (UO-31 renal) was > 100 µM.
